Literature values as cited in patent publication US10952984B2, “All-trans retinoic acid injectant and application” (HIGHFIELD BIOPHARMACEUTICAL CORPORATION, priority 2016, dated 2021).
In brackets after ≈: the same amount, converted by molar mass.

Assays:
[1] = not given; remark: listed apart in the source

Structure (SMILES): CC1=C(/C=C/C(C)=C/C=C/C(C)=C/C(=O)O)C(C)(C)CCC1 [all-trans retinoic acid]
- water solubility: 4.77 µg/mL (≈ 15.9 µM)
- solubility of the all-trans retinoic acid in the prior art (prior art): 0.01 mg/mL
- bioavailability ([1]; oral dosage forms, clinical studies): ≤ 30%
- plasma half-life ([1]; prior art): short
